{
  "source": "patent US20230172925A1",
  "about": "“SKIN-CARE COMPOSITIONS AND USES THEREOF” (AHAVA - DEAD SEA LABORATORIES LTD., priority 2019, published 2023)",
  "format_in_all_cases": "cell-based",
  "key": {"[1]": {"tested_on": "TNFα", "experiment": "Human skin organ culture with UVB stressor, TNFα secretion in the medium", "settings": "UVB 200 mJ/cm2; irradiated sample = 100% (53±30 pg/ml); complex, DSE 3.0%, β-Caroten 15.6 ppm", "experimental": "(§1) Topical exposure till 48 hours in total (24 hr recovery following topical application+24 hr after exposure to UVB irradiation) with UVB radiation as stressor on human skin model\n(§2) The following general procedure was used in the study:\n(§3) Day 1: Topical application of 3 μl of each sample solution on the epidermis of each skin explant. Incubate for 24 hours. SDS 10% was applied only once, and was not farther irradiated with UVB.\n(§4) Day 2: Skin explants were washed once with PBS and irradiated with UVB lamp at 200 mJ/cm2. After radiation it was incubated for 30 min and then topically apply each treatment (sample solution) again. Control was not irradiated under UVB light. UVB radiated control was without any treatment except radiation.\n(§5) Day 3: Viability and Caspase3 activity were measured for the epidermis layer. The medium was collected for cytokines test.\nFIG. 4 illustrates the TNFα secretion results in the medium as observed with 2 to 4 repetition of the tests. In FIG. 4 the TNFα secretion of the irradiated sample “UVB” was selected as 100% and it equals 53±30 pg/ml."}, "[2]": {"tested_on": "IL-1α", "experiment": "Human skin organ culture with UVB stressor, IL-1α secretion in the medium", "settings": "UVB; OSM 0.5%, β-Caroten 15.6 ppm", "experimental": "as §1, §2, §3, §4, §5\nFIG. 5 illustrates the IL-1α secretion results in the medium as observed with 3 to 4 repetition of the tests. In FIG. 5 the IL-1α secretion of the irradiated sample “UVB” was selected as 100% and it equals 8.1±1.0 pg/ml."}, "[3]": {"tested_on": "MatTek EFT-400 full thickness tissues", "experiment": "DNA microarray gene expression in skin equivalents, complex vs individual ingredients (Example 5)", "parameters": "key to Genes up and downregulation in pathway: + = up-regulated; − = down-regulated; *non-significant down-regulation, thus, regulation is considered as non-affected (NA)", "settings": "for Up-Regulated Genes (number): cut off of two fold change of adjusted Fold Change, 48 hours", "experimental": "MatTek EFT-400 full thickness tissues were used as the model for this study. Upon arrival, the full thickness tissues were placed into 6 wells plates with 2 ml of culture media and incubated overnight at 37±2° C. and 5±1% CO2. After this overnight incubation the culture media was replaced with 5 ml of fresh media and the tissues were treated topically with the test materials prepared in distilled water as follows:\nAfter the application of the test materials the tissues were incubated at 37±2° C. and […] for 48 hours.\nAt the end of the treatment period, the tissues were rinsed and transferred to a 2 ml centrifuge tube containing 700 μl of lysis buffer and homogenized. After centrifuging at 14,000×g for 10 minutes at 4° C. the supernatant from each tube was transferred to a new 1.5 ml tube and mixed with and equal volume of 64% ethanol. After mixing the solutions was transferred to glass fiber filter cartridges and the cartridges were loaded into a 1.5 ml collection tube centrifuged for 1 minute at 14,000 RPM in a Napco 2002 Microcentrifuge with a DA-6T fixed angle rotor. The flow through was discarded and any remaining mixture was loaded into the filter cartridge and the centrifugation process was repeated until all of the mixture had been processed. The filter was then washed to remove any residual cellular debris from the RNA bound to the glass fibers by subsequently applying 700 μl of wash solution 1 (1 time) and 500 μl of wash solution 2 (2 times) to the filter cartridge and centrifuging at 14,000 RPM for 1 minute to pass each wash through the cartridge. After each wash, the flow through was discarded. After the final wash one final spin was performed without wash solution to remove any residual wash solution in the filter cartridge. The RNA bound to the glass fibers within the cartridge was then eluted by applying 40 μl of TE buffer (10 mM Tris-HCl, 1 mM EDTA, preheated to 70-80° C.) to the cartridge and centrifuging the cartridge in a new collection tube at 14,000 RPM for one minute. The elution process was then repeated a second time using 20 μl of TE buffer.\nFirst Strand cDNA Synthesis: To start the first strand synthesis, 10 μl of total RNA for each sample was added to a 600 μl PCR tube and the total volume of liquid in the tube will be adjusted to 11 μl with DEPC H2O. Next, 1 μl of T7 Oligo(dT) primer was added and the tube was incubated in a water bath at 70±2° C. for 10 minutes to denature the RNA and then placed on ice to allow the primers to anneal to the poly A ends of the mRNA. After cooling 2 μl of 10× first strand buffer, 1 μl of RNAse inhibitor and 4 μl of dNTP mix were added to each tube, and the tube was incubated at 42° C. in a hybridization oven (Labnet Problot). As soon as the tube was heated, 1 μl of Reverse Transcriptase was added and the tubes were returned to 42±2° C. for 2 hours. At the end of the two hours the tubes were briefly centrifuged to collect all of the fluid at the bottom of the tube and then placed on ice.\nTwo tubes were prepared for the labeling process, one for Cy3 labeling (green) and one for Cy5 labeling (red). To the Cy3 tube 2 μg of aRNA prepared from the untreated/control sample (the actual color assignment for each sample is not important, but for consistency Cy3 is normally used for the untreated sample) and enough DEPC H2O was added to bring the total volume up to 4 μl. To the Cy5 tube 2 μg of aRNA prepared from the sample treated with the test material and enough DEPC H2O was added to bring the total volume up to 4 μl. To both tubes 5 μl of ASAP labeling buffer was added along with 1 μl of the specific dye for the tube (Cy3 or Cy5). The tubes were incubated for 15 minutes at 85±2° C. At the end of the 15 minutes the tubes were placed on ice to cool them and then add 2.5 μl of ASAP stop solution was added to each tube."}, "[4]": {"settings": "KEGG_NUCLEOTIDE_EXCISION_REPAIR"}, "[5]": {"settings": "KEGG_SIGNALING_PATHWAYS_REGULATING_PLURIPOTENCY_OF_STEM_CELLS"}, "[6]": {"settings": "WIKI_ASSEMBLY_OF_COLLAGEN_FIBRILS_AND_OTHER_MULTIMERIC_STRUCTURES"}},
  "data": [
    {"smiles": "CC1=C(/C=C/C(C)=C/C=C/C(C)=C/C=C/C=C(C)/C=C/C=C(C)/C=C/C2=C(C)CCCC2(C)C)C(C)(C)CCC1", "note": "[β-Caroten, β-carotene]", "values": [
      {"measurement": "TNFα concentration as % of the irradiated skin explant", "setting": "[1]", "value": 70, "unit": "%"},
      {"measurement": "increase in IL-1α secretion compared to the control", "setting": "[2]", "value": 20, "unit": "%"},
      {"measurement": "z-score", "setting": "[3]; KEGG_APOPTOSIS", "value": "−0.5665"},
      {"measurement": "z-score", "setting": "[3]; KEGG_BASE_EXCISION_REPAIR", "value": "−1.4296"},
      {"measurement": "Genes up and downregulation in pathway", "setting": "[3]; KEGG_CELL_CYCLE", "value": "−"},
      {"measurement": "z-score", "setting": "[3]; KEGG_CELL_CYCLE", "value": "−2.4656"},
      {"measurement": "z-score", "setting": "[3]; KEGG_CIRCADIAN_RHYTHM_MAMMAL", "value": "−1.209"},
      {"measurement": "z-score", "setting": "[3]; KEGG_FATTY_ACID_BIOSYNTHESIS", "value": "−0.6185"},
      {"measurement": "z-score", "setting": "[3]; KEGG_FATTY_ACID_DEGRADATION", "value": "−1.0292"},
      {"measurement": "z-score", "setting": "[3]; KEGG_GLYCOLYSIS_GLUCONEOGENESIS", "value": "−1.0754"},
      {"measurement": "z-score", "setting": "[3]; KEGG_NF_KAPPA_B_SIGNALING_PATHWAY", "value": 3.1522},
      {"measurement": "Genes up and downregulation in pathway", "setting": "[3]; [4]", "value": "−"},
      {"measurement": "z-score", "setting": "[3]; [4]", "value": "−1.5901"},
      {"measurement": "z-score", "setting": "[3]; KEGG_OXIDATIVE_PHOSPHORYLATION", "value": 3.5721},
      {"measurement": "Genes up and downregulation in pathway", "setting": "[3]; KEGG_P53_SIGNALING_PATHWAY", "value": "−"},
      {"measurement": "z-score", "setting": "[3]; KEGG_P53_SIGNALING_PATHWAY", "value": "−1.6942"},
      {"measurement": "z-score", "setting": "[3]; KEGG_PROTEASOME", "value": 1.1865},
      {"measurement": "z-score", "setting": "[3]; KEGG_RETINOL_METABOLISM", "value": "−0.6377"},
      {"measurement": "Genes up and downregulation in pathway", "setting": "[3]; [5]", "value": "−"},
      {"measurement": "z-score", "setting": "[3]; [5]", "value": "−2.818"},
      {"measurement": "z-score", "setting": "[3]; KEGG_SPHINGOLIPID_METABOLISM", "value": "−0.4773"},
      {"measurement": "z-score", "setting": "[3]; KEGG_TH1_AND_TH2_CELL_DIFFERENTIATION", "value": 1.3936},
      {"measurement": "z-score", "setting": "[3]; KEGG_TIGHT_JUNCTION", "value": "−0.07358"},
      {"measurement": "z-score", "setting": "[3]; KEGG_TNF_SIGNALING_PATHWAY", "value": 5.6735},
      {"measurement": "z-score", "setting": "[3]; KEGG_T_CELL_RECEPTOR_SIGNALING_PATHWAY", "value": 1.5111},
      {"measurement": "z-score", "setting": "[3]; KEGG_WNT_SIGNALING_PATHWAY", "value": "−1.5459"},
      {"measurement": "z-score", "setting": "[3]; WIKI_ACTIVATION_OF_MATRIX_METALLOPROTEINASES", "value": 0.8244},
      {"measurement": "Genes up and downregulation in pathway", "setting": "[3]; [6]", "value": "−"},
      {"measurement": "z-score", "setting": "[3]; [6]", "value": "−5.9295"},
      {"measurement": "z-score", "setting": "[3]; WIKI_COLLAGEN_BIOSYNTHESIS_AND_MODIFYING_ENZYMES", "value": 4.7943},
      {"measurement": "regulation of collagen synthesis and extracellular matrix pathways (Z-Score heatmap, in words)", "setting": "[3]; WIKI_COLLAGEN_BIOSYNTHESIS_AND_MODIFYING_ENZYMES, WIKI_EXTRACELLULAR_MATRIX_ORGANIZATION, WIKI_DEGRADATION_OF_THE_EXTRACELLULAR_MATRIX, WIKI_COLLAGEN_DEGRADATION, WIKI_ASSEMBLY_OF_COLLAGEN_FIBRILS_AND_OTHER_MULTIMERIC_STRUCTURES", "value": "very much down regulated"},
      {"measurement": "z-score", "setting": "[3]; WIKI_COLLAGEN_DEGRADATION", "value": "−5.0219"},
      {"measurement": "z-score", "setting": "[3]; WIKI_DEGRADATION_OF_THE_EXTRACELLULAR_MATRIX", "value": 4.6457},
      {"measurement": "Genes up and downregulation in pathway", "setting": "[3]; WIKI_ELASTIC_FIBRE_FORMATION", "value": "−"},
      {"measurement": "z-score", "setting": "[3]; WIKI_ELASTIC_FIBRE_FORMATION", "value": "−2.0745"},
      {"measurement": "z-score", "setting": "[3]; WIKI_ELECTRON_TRANSPORT_CHAIN_IN_MITOCHONDRIA", "value": 2.7536},
      {"measurement": "z-score", "setting": "[3]; WIKI_EXTRACELLULAR_MATRIX_ORGANIZATION", "value": 4.5653},
      {"measurement": "Genes up and downregulation in pathway", "setting": "[3]; WIKI_KERATINIZATION", "value": "+"},
      {"measurement": "z-score", "setting": "[3]; WIKI_KERATINIZATION", "value": 6.3972},
      {"measurement": "z-score", "setting": "[3]; WIKI_NRF2_PATHWAY", "value": 1.7004},
      {"measurement": "z-score", "setting": "[3]; WIKI_RESPIRATORY_ELECTRON_TRANSPORT_ATP_SYNTHESIS", "value": 2.2177},
      {"measurement": "z-score", "setting": "[3]; WIKI_SPHINGOLIPID_METABOLISM", "value": "−0.9459"},
      {"measurement": "Up-Regulated Genes (number)", "setting": "[3]; 19254 genes evaluated", "value": 196},
      {"measurement": "Up-Regulated Genes (number)", "setting": "[3]; second column of Table 6", "value": 503}
    ]}
  ]
}
